Where “and” joins values, the source holds several entries; their conditions need not be identical. Identical values can stand only once.
What was measured:
THP-1 cells = test: enhancing effect for differentiation-induction from human monocyte to macrophage (THP-1/Mφ system, MTT readout); assay type: cell-based; design: key: ++: enhanced 100% or more; +: enhanced 50-100%; ±: enhanced 25-50%; −: no activity; /: expressed cytoxicity; NT: not tested or under assessment; details: in comparison with enhancing action for differentiation-induction of EM 100 μM
Protocol: In order to confirm enhancing effect for differentiation-induction of the compounds of the present invention, the enhancing effect for differentiation-induction from human monocyte to macrophage was assayed. Method is performed as follows. THP-1 cells were collected from cultured liquid by centrifugation, adjusted the concentration to 2×10^5 cells/ml using medium (RPMI 1640) and distributed into the 48-well plate at 500 μl/well. PMA solution 10 μl and sample solution 5 μl were added in each well, stirred with mild shaking and incubated at 37° C. for 72-96 hours under 5% CO2. Further MTT 0.5 mg/ml solution was added at 300 μl/well, and incubated at 37° C. for 3 hours under 5% CO2. Supernatant solution was suctioned using the injection tube, added DMSO 500 μl using automatic continuous injector to dissolve formazan completely and transferred each 100 μl to the 96-well plate. The optical absorption was measured using the plate-reader.

[1] = test system: bleomycin-induced pulmonary fibrosis; test: suppressive effect against bleomycin-induced pulmonary fibrosis (hydroxyproline levels in tissue); assay type: in vivo, mice; details: BLM group: BLM 100 mg/kg tail vein day-0 only, day-28, individual mice

Molecule | melting point [°C] | activities in THP-1/Mφ system, Treated conc. 0.3 μM (THP-1 cells) | activities in THP-1/Mφ system, Treated conc. 1 μM (THP-1 cells) | activities in THP-1/Mφ system, Treated conc. 3 μM (THP-1 cells) | activities in THP-1/Mφ system, Treated conc. 10 μM (THP-1 cells) | activities in THP-1/Mφ system, Treated conc. 30 μM (THP-1 cells) | Hydroxyproline levels in tissue, Assay result [1] | Hydroxyproline levels in tissue, Weight conversion [1]
CC[C@H]1O[C@]2(O)O[C@H]([C@@H](C)C3O[C@@](C)(C[C@@H]3C)[C@H](O[C@@H]3OC(C)CC(N4CCCCC4)C3O)[C@@H](C)[C@H](O[C@H]3CC(C)(OC)[C@@H](O)C(C)O3)[C@H]2C)[C@]1(C)O (stereo partly drawn) [EM734, de(3′-dimethylamino)-3′-piperidino-8,9-anhydro-pseudoerythromycin A 6,9-hemiketal] | 128 to 130 | − | ± (enhanced 25-50%) | + (enhanced 50-100%) | + (enhanced 50-100%) |  |  | 
CCCCCCNC1CC(C)O[C@@H](O[C@@H]2[C@@H](C)[C@H](O[C@H]3CC(C)(OC)[C@@H](O)C(C)O3)[C@@H](C)[C@@]3(O)O[C@H]([C@@H](C)C4O[C@@]2(C)C[C@@H]4C)[C@](C)(O)[C@@H](CC)O3)C1O (stereo partly drawn) [EM738, bis-de(3′-N-methyl)-3′-N-hexyl-8,9-anhydro-pseudoerythromycin A 6,9-hemiketal] | 115 to 118 | − | ± (enhanced 25-50%) | + (enhanced 50-100%) |  |  |  | 
CCCCCCN(CCCCCC)C1CC(C)O[C@@H](O[C@@H]2[C@@H](C)[C@H](O[C@H]3CC(C)(OC)[C@@H](O)C(C)O3)[C@@H](C)[C@@]3(O)O[C@H]([C@@H](C)C4O[C@@]2(C)C[C@@H]4C)[C@](C)(O)[C@@H](CC)O3)C1O (stereo partly drawn) [EM739, bis-de(3′-N-methyl)-3′,3′-N,N-dihexyl-8,9-anhydro-pseudoerythromycin A 6,9-hemiketal] | 158 to 160 | − | ± (enhanced 25-50%) | + (enhanced 50-100%) | + (enhanced 50-100%) |  |  | 
CC[C@H]1O[C@]2(O)O[C@H]([C@@H](C)C3O[C@@](C)(C[C@@H]3C)[C@H](O[C@@H]3OC(C)CC(N4CCCCCC4)C3O)[C@@H](C)[C@H](O[C@H]3CC(C)(OC)[C@@H](O)C(C)O3)[C@H]2C)[C@]1(C)O (stereo partly drawn) [EM748, de(3′-dimethylamino)-3′-[hexahydro-1(1H)-azepinyl]-8,9-anhydro-pseudoerythromycin A 6,9-hemiketal] | 120 to 123 | − | ± (enhanced 25-50%) | ++ (enhanced 100% or more) | ++ (enhanced 100% or more) |  |  | 
COC1(C)CC(OC2C(C)C(=O)OC(C(C)=NO)C(C)C3=C(C)CC(C)(O3)C(OC3OC(C)CC(N(C)C)C3O)C2C)OC(C)C1O (stereo not drawn) [EM743, de(12-hydroxy)-de[12-(1-hydroxypropyl)]-12-hydroxyoxime-8,9-anhydro-pseudoerythromycin A 6,9-hemiketal] |  |  | − | ± (enhanced 25-50%) | − |  |  | 
CC[C@@H](O)[C@@](C)(O)[C@@H]1OC(=O)[C@H](C)[C@@H](O[C@H]2C[C@@](C)(OC)[C@@H](O)[C@H](C)O2)[C@H](C)[C@@H](O[C@@H]2O[C@H](C)C[C@H](N3CCOCC3)[C@H]2O)[C@@]2(C)CC(C)=C(O2)[C@@H]1C [EM747, de(3′-dimethylamino)-3′-morpholino-8,9-anhydro-pseudoerythromycin A 6,9-hemiketal] |  |  |  | − | ± (enhanced 25-50%) | ++ (enhanced 100% or more) |  | 
CCC(O)C(C)(O)C1OC(=O)C(C)C(OC2CC(C)(OC)C(O)C(C)O2)C(C)C(OC2OC(C)CC(N)C2O)C2(C)CC(C)=C(O2)C1C (stereo not drawn) [EM721, bis-de(3′-N-methyl)-8,9-anhydro-pseudo erythromycin A 6,9-hemiketal] |  |  |  | − | + (enhanced 50-100%) |  |  | 
CCC(O)C(C)(O)C1OC(=O)C(C)C(OC2CC(C)(OC)C(O)C(C)O2)C(C)C(OC2OC(C)CC(N(C)CC#N)C2O)C2(C)CC(C)=C(O2)C1C (stereo not drawn) [EM742, de(3′-N-methyl)-3′-cyanomethyl-8,9-anhydro-pseudoerythromycin A 6,9-hemiketal] |  | − | − | − | + (enhanced 50-100%) | + (enhanced 50-100%) |  | 
CCC(O)C(C)(O)C1OC(=O)C(C)C(O)C(C)C(OC2OC(C)CC(N(C)C)C2O)C2(C)CC(C)=C(O2)C1C (stereo not drawn) [EM737, de(3-O-cladinosyl)-8,9-anhydro-pseudo erythromycin A 6,9-hemiketal] |  |  |  | − | + (enhanced 50-100%) |  |  | 
CCCN(CCC)C1CC(C)OC(OC2C(C)C(OC3CC(C)(OC)C(O)C(C)O3)C(C)C(=O)OC(C(C)(O)C(O)CC)C(C)C3=C(C)CC2(C)O3)C1O (stereo not drawn) [EM731, bis-de(3′-N-methyl)-3′,3′-N,N-di-propyl-8,9anhydro-pseudoerythromycin A 6,9-hemiketal] |  | − | − | + (enhanced 50-100%) |  |  |  | 
COC1(C)CC(OC2C(C)C(=O)OC(C(C)O)C(C)C3=C(C)CC(C)(O3)C(OC3OC(C)CC(N(C)C)C3O)C2C)OC(C)C1O (stereo not drawn) [EM746, de[12-(hydroxypropyl)]-8,9-anhydro-pseudo erythromycin A 6,9-hemiketal] |  | − | ± (enhanced 25-50%) | + (enhanced 50-100%) | + (enhanced 50-100%) | + (enhanced 50-100%) |  | 
CCC(O)C(C)(O)C1OC(=O)C(C)C(OC2CC(C)(OC)C(O)C(C)O2)C(C)C(OC2OC(C)CC(NC(C)=O)C2O)C2(C)CC(C)=C(O2)C1C (stereo not drawn) [EM726, bis-de(3′-N-methyl)-3′-N-acetyl-8,9-anhydro-pseudoerythromycin A 6,9-hemiketal] |  | − | − | − | − | − |  | 
CC[C@@H](O)[C@@](C)(O)[C@@H]1OC(=O)[C@H](C)[C@@H](O[C@H]2C[C@@](C)(OC)[C@@H](O)[C@H](C)O2)[C@H](C)[C@@H](O[C@@H]2O[C@H](C)C[C@H](N(C)CCCO)[C@H]2O)[C@@]2(C)CC(C)=C(O2)[C@@H]1C [EM744] |  |  | − | − | − |  |  | 
bleomycin [BLM, reference compound] |  |  |  |  |  |  | 785 µmol/L and 733 µmol/L | 7.1 µmol/g and 6.4 µmol/g
C#CCN(CC#C)C1CC(C)OC(OC2C(C)C(OC3CC(C)(OC)C(O)C(C)O3)C(C)C(=O)OC(C(C)(O)C(O)CC)C(C)C3=C(C)CC2(C)O3)C1O (stereo not drawn) [EM729, bis-de(3′-N-methyl)-3′,3′-N,N-di-propargyl-8,9-anhydro-pseudoerythromycin A 6,9-hemiketal] |  | − | ± (enhanced 25-50%) | ± (enhanced 25-50%) | ± (enhanced 25-50%) |  |  | 
C=CCNC1CC(C)OC(OC2C(C)C(OC3CC(C)(OC)C(O)C(C)O3)C(C)C(=O)OC(C(C)(O)C(O)CC)C(C)C3=C(C)CC2(C)O3)C1O (stereo not drawn) [EM724, bis-de(3′-N-methyl)-3′-N-allyl-8,9-anhydro-pseudoerythromycin A 6,9-hemiketal] |  | − | + (enhanced 50-100%) | + (enhanced 50-100%) | ++ (enhanced 100% or more) |  |  | 
